# Assay results from US8283481B2, “Inhibitors of a 9-cis epoxycarotenoid dioxygenase” (National Research Council of Canada, priority 2008, dated 2012).
# “Also recorded” adds a separate entry of the source.
# Columns and labels:
# recombinant AtNCED3 = biological target: T1, recombinant AtNCED3 (Arabidopsis thaliana, UniProt Q9LRR7); experiment: Recombinant AtNCED3 in vitro enzyme assay (HPLC, cleavage of 9-cis-neoxanthin); type: biochemical; settings: for relative inhibition of AtNCED3 activity (in words): in vitro enzyme assay, 1 mM concentration (FIG. 5); for Ki: Dixon plot, competitive inhibition, 0-250 μM inhibitor, 9-cis-neoxanthin at 50 (55), 30 and 10 μM
# T1 construct: glutathione-S-transferase (GST) (C); made in house; host or cells: E. coli BL21(DE3), pRL296 vector
# Description: Fresh spinach was macerated under liquid nitrogen and extracted five times with three volumes of methanol/0.1% KOH. Samples were dried using a roto-evaporator, resuspended in acetone and then chilled on ice for one hour. The solvent was subsequently transferred to a new flask, roto-evaporated and resuspended in acetonitrile/acetone (1:1) mixture. The mixture was applied to a gravity flow column containing C-18 silica gel (Sigma) equilibrated in 65% acetonitrile/35% water (solvent C). The column was washed with 49% acetone (solvent D)/51% solvent A and 20 mL of 55% solvent D/45% solvent A while collecting 5 mL fractions. Fractions containing neoxanthin were pooled, dried, and resuspended in 100 μL of methanol. The pooled mixture was separated using an Agilent 1100 series HPLC and a Supelcosil™ LC-18 (25 cm×10 mm, 5 m) (Supelco) column equilibrated with solvent A. The HPLC method consisted of a linear gradient over 30 minutes from 100% solvent A to 100% solvent D with a flow rate of 4 mL/minute at 22° C. and monitored with a PDA detector at 436 nm. The neoxanthin fractions were collected, dried and resuspended in ethanol. Neoxanthin was quantified by determining its OD439 using a PerkinElmer Lambda 35 UV/VIS Spectrometer and applying its extinction coefficient of 2243 (A^1%1cm).^30
# AtNCED3 was over-expressed using the pRL296 expression vector (a gift from M. Cygler, BRI, Montreal) in E. coli (BL21)DE3 cells as a glutathione-S-transferase fusion protein and affinity purified using glutathione sepharose 4 fast flow resin (GE Healthcare) as described previously.^35 Essentially, cells were grown to an OD600 of 0.45 at 37° C. and 200 rpm shaking. The culture was induced with 1 mM isopropyl-β-d-thiogalactoside for 16 h at 15° C. and 200 rpm shaking. The cells were pelleted and resuspended in 50 mM Tris-HCl (pH 8.0) 1 mM DTT and 0.5% protease inhibitor cocktail set III (CalBiochem). Cells were lysed using a french press at 20,000 psi and affinity purified as per manufacturer's instructions (GE Healthcare). Protein concentration was determined by the method of Bradford.^36
# Enzymatic assays contained 100 mM Bis-Tris (pH 6.7), […], 10 mM ascorbate, 0.05% Triton™ X-100, catalase (1 mg/mL), neoxanthin and inhibitor to a total volume of 5 L of ethanol and 8 g AtNCED3 to a total assay volume of 100 L. Assays were incubated at 22° C. for 20 min. The assays were stopped with the addition of 50 L of 25% Triton™ X-100 and extracted with 150 L of ethyl acetate. All procedures were performed under red-light to minimize photo-induced damage to assay components and products.^6 Fine chemicals and solvents were purchased from Sigma-Aldrich. 75 μL of the assay extract was injected into an Agilent 1100 series HPLC machine equipped with a Supelcosil™ LC-18 (3.3 cm×4.6 mm, 3 m) (Supelco) column pre-equilibrated with 15% acetonitrile (solvent B)/85% water (solvent A). Solvent B increased to 35% over ten minutes, followed by a linear gradient of 65% solvent B to 100% solvent D over 10 minutes. Solvent D was maintained at 100% for 2 minutes and then the column was returned to 15% solvent B for 5 min. The flow rate was maintained at 1.5 mL/min. and monitored with a photodiode array (PDA) detector at 436 and 262 nm.
# Evaluation of recombinant AtNCED3 kinetic parameters for Km was accomplished using Michaelis-Menten equation plotted with EnzFitter™ v2.0.18.0 (Biosoft). The Ki for inhibitors was determined using a Dixon plot and concentration ranges of 250, 200, 150, 100, 50 and 0 μM inhibitor in the presence of either 55, 30 or 10 μM 9-cis-neoxanthin 2.^5
# [1] = tested on: ABA metabolite accumulation; settings: background, references 17, 18; cited from earlier work
# cowpea NCED enzyme = settings: background, references 17, 18; read-out: Ki, competitive inhibition of cowpea NCED enzyme; cited from earlier work
# [2] = tested on: Arabidopsis thaliana Col-0 seeds; experiment: Seed germination assay; type: in vivo
# Experimental: Arabidopsis thaliana Col-0 seeds were sterilized by washing them with 10% sodium hypochlorite and 20% sodium dodecyl sulfate (Sigma) for five minutes and then rinsing four times with sterile water. Seeds were moist chilled for 4 days and then plated on germination medium (0.41% MS salts, 1% sucrose, 0.05% MES and 0.1% Gamborg's vitamins, pH 5.7, 0.7% agar) (Sigma) containing either 0.1, 0.33, 1.0 or 3.33 μM of inhibitor or (+)-ABA 1. As a control, seeds were sewn and germinated on media only without inhibitors or (+)-ABA 1. Germination was recorded over seven days and indexes calculated as described previously.^40
# [3] = tested on: ABA and catabolites in Arabidopsis thaliana Col-0 plants; experiment: Total ABA metabolite levels in mannitol stressed plants treated with SLCCD inhibitors; type: in vivo; settings: 33 μM inhibitor, mannitol stress, first 6 hours
# Experimental: For each condition to be tested, three hundred wild-type Arabidopsis thaliana Col-0 seeds (LEHLE) were sterilized, vernalized and sewn onto 200 mL of Sunshine Mix #3 (Sun Gro) potting material in an 8×8×4 cm pot. Plants were watered continuously with 25 g/100 mL of 20-20-20 (PlantProd™) fertilizer and grown at 22° C. with a 16 hour photoperiod for 22 days. Plants were pre-treated with 50 mL/pot of Buffer A (10 mM HEPES pH 6.5) (Sigma)+/−10 or 33 μM test compound for 2 hours. Plants were then soaked with 50 mL/pot of Buffer A containing 0.4 M mannitol (Sigma)+/−10 or 33 μM test compound. Non-treated/non-stressed control plants were simply soaked in Buffer A at the designated time points. […] Half of the tissue samples were lyophilized for metabolite profiling and the other half taken for quantitative reverse-transcription polymerase chain reaction (qRT-PCR) analysis.
# Freeze-dried tissue was homogenized using a multi-tube ball mill (Mini-BeadBeater-96™, Biospec Products Inc., Bartlesville, Okla., USA) and 50 mg of each sample was weighed out into individual Falcon tubes. To each sample, 100 μL of a cocktail of internal standards comprised of (−)-5,8′,8′,8′-d4-ABA, (−)-7′,7′,7′-d3-PA, (−)-5,8′,8′,8′-d4-7′OH ABA, (−)-7′,7′,7′-d3-DPA and (+)-4,5,8′,8′,8′-d5-ABAGE, each at a concentration of 0.2 ng/μL and dissolved in a mixture of water:acetonitrile (1:1, v/v) with 0.5% glacial acetic acid, was added. Further, 3 mL of isopropanol:water:glacial acetic acid (80:19:1, v/v/v) extraction solvent was added, and samples were placed in the fridge (4° C., in the dark) on an orbital shaker at about 350 rpm. After 18-24 hours, the samples were centrifuged at 4.4 krpm for 10 min, the supernatant was transferred to a disposable culture tube, and a second portion of 500 μL extraction solvent mixture was added to wash the pellet. After vortexing and centrifuging again at 4.4 krpm for 10 min, each wash was combined with its appropriate supernatant. The organic extract was dried under reduced pressure, then re-dissolved in 100 μL methanol:glacial acetic acid (99:1, v/v) followed by 900 μL of aqueous 1% glacial acetic acid. This mixture was extracted with 2 mL hexane, and then the aqueous layer was dried down under reduced pressure. The sample was further reconstituted in 2 mL aqueous 1% glacial acetic acid and loaded onto an Oasis MCX SPE cartridge (3 cc, Waters Corporation, Mississauga, Ontario, Canada). After a wash with 3 mL aqueous 1% glacial acetic acid, samples were eluted with 1 mL methanol:glacial acetic acid (99:1, v/v) and then dried down under reduced pressure. The extract was re-dissolved in 100 μL methanol:glacial acetic acid (99:1, v/v) followed by 900 μL of aqueous 1% glacial acetic acid. This mixture was further cleaned on an Oasis HLB SPE cartridge (1 cc, Waters Corporation, Mississauga, Ontario, Canada). After a wash with 1 mL aqueous 1% glacial acetic acid, the fraction containing ABA and ABA metabolites was eluted with 1 mL acetonitrile:water:glacial acetic acid (30:69:1, v/v/v) and then was evaporated to dryness. The final residue was dissolved in 200 μL of acetonitrile:water (15:85, v/v) containing 0.1% glacial acetic acid and 100 pg/μL (±)-3′,5′,5′,7′,7′,7′-d6-ABA as a recovery standard. Finally, the sample was subjected to LC-ES-MS/MS analysis and quantification, as described in Owen and Abrams, 2008.^39
# T1 sequence (Q9LRR7 41-599): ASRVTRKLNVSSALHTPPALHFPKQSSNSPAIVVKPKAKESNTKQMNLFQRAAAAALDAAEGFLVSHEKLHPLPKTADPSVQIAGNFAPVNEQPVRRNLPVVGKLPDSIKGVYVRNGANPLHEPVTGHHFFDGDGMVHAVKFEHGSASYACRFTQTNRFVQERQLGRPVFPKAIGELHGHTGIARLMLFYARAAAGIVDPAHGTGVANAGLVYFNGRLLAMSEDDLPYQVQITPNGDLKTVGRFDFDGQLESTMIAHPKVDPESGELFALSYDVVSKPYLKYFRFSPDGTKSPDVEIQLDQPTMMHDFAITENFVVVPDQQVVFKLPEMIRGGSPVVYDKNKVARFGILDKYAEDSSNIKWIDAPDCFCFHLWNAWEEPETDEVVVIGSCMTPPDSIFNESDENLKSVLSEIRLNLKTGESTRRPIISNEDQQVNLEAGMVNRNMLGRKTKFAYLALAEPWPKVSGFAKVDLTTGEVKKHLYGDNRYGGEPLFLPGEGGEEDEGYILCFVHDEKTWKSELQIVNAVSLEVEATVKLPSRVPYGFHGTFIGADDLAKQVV
molecule,measurement,setting,value
"CCSC/C=C(/C)C#C[C@]1(O)[C@H](C)C[C@@H](O)CC1(C)C [Compound 14, (1S,4R,6R)-(3′Z)-1-(5′-(Ethylthio)-3′-methylpent-3′-en-1′-ynyl)-2,2,6-trimethylcyclohexane-1,4-diol]",relative inhibition of AtNCED3 activity (in words),recombinant AtNCED3,did not afford greater activity
Abamine SG [compound 10],reduction of ABA metabolite accumulation,[1],77%
same,Ki,recombinant AtNCED3,86 µM
same,Ki,cowpea NCED enzyme,38.8 µM
"CC1=CC(=O)CC(C)(C)C1(O)/C=C/C(C)=C\C(=O)O (single isomer, unassigned; (+)) [(+)-ABA 1, Abscisic acid, reference compound]",reduction of seed germination,[2]; 0.33 μM in germination medium,47%
same,reduction of seed germination,[2]; 1 μM in germination medium,61%
same,reduction of seed germination,[2]; highest concentration tested (3.33 μM),96%
"CCSC/C=C(/C)C#C[C@]1(O)[C@H](C)CC(=O)CC1(C)C [Compound 11, (4S,5R)-(3′Z)-4-(5′-(Ethylthio)-3′-methylpent-3′-en-1′-ynyl)-4-hydroxy-3,3,5-trimethylcyclohexanone]",relative inhibition of AtNCED3 activity (in words),recombinant AtNCED3,reduced activity
"CC(=C/C=C/C(C)=C/C=C/C=C(C)/C=C/C=C(\C)C=C=C1C(C)(C)C[C@H](O)C[C@@]1(C)O)/C=C/[C@@]12O[C@]1(C)C[C@@H](O)CC2(C)C (relative stereo) [compound 2, 9-cis-Neoxanthin, reference compound]",Km,"recombinant AtNCED3; cleavage of 9-cis-neoxanthin 2 by recombinant AtNCED3, Michaelis-Menten plot",24 µM
"COC(=O)CN(C/C=C/c1ccc(OC)c(OC)c1)Cc1ccc(F)cc1 [compound 9, Abamine, reference compound]",reduction of ABA metabolite accumulation,[1],35%
same,Ki,recombinant AtNCED3,132 µM
same,Ki,cowpea NCED enzyme,18.5 µM
same,levels of ABA and catabolites at first time point (in words),[3],higher levels of ABA and catabolites at the first time point
"CCSC/C=C(/C)C#C[C@@]1(O)[C@H](C)C[C@@H](O)CC1(C)C [Compound 15, (1R,4R,6R)-(3′Z)-1-(5′-(Ethylthio)-3′-methylpent-3′-en-1′-ynyl)-2,2,6-trimethylcyclohexane-1,4-diol]",relative inhibition of AtNCED3 activity (in words),recombinant AtNCED3,did not afford greater activity
"CCSC/C=C(/C)C#C[C@@]1(O)[C@@H](C)CC(=O)CC1(C)C [Compound 12, (4R,5S)-(3′Z)-4-(5′-(Ethylthio)-3′-methylpent-3′-en-1′-ynyl)-4-hydroxy-3,3,5-trimethylcyclohexanone]",relative inhibition of AtNCED3 activity (in words),recombinant AtNCED3,completely inhibited; also recorded: inhibited the enzyme as strongly as the more xanthoxin-like compounds
